In patent US12077503B2, “Substituted cyclic amides and their use as herbicides” (FMC CORPORATION, priority 2015, dated 2024):

What was measured:
Format in all cases: in vivo
[1] = system: ryegrass, Italian (Italian ryegrass, Lolium multiflorum); assay: Test A preemergence; conditions: Lolium multiflorum, pre-emergence, 240 h, 0 to 100 scale where 0 is no effect and 100 is complete control, read-out: Ryegrass, Italian plant response rating
How it was run: (§1)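 Each rating is a visual injury score from 0 to 100 given about 10 d after treatment, judged against untreated controls kept alongside in the greenhouse. In loam soil–sand blend, seeds got a preemergence directed soil spray, while postemergence plants were 2 to 10 cm tall at spraying.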

Kochia (Kochia scoparia) [2] = assay: Test A preemergence; conditions: Bassia scoparia, pre-emergence, 240 h, 0 to 100 scale where 0 is no effect and 100 is complete control, read-out: Kochia plant response rating
How it was run: as §1

[3] = system: pigweed (Amaranthus retroflexus); assay: Test A preemergence; conditions: Amaranthus retroflexus, pre-emergence, 240 h, 0 to 100 scale where 0 is no effect and 100 is complete control, read-out: Pigweed plant response rating
[4] = system: giant foxtail (Setaria faberii); assay: Test A preemergence; conditions: Setaria faberi, pre-emergence, 240 h, 0 to 100 scale where 0 is no effect and 100 is complete control, read-out: Foxtail, Giant plant response rating
How it was run: as §1

[5] = system: barnyardgrass (Echinochloa crus-galli); assay: Test A preemergence; conditions: Echinochloa crus-galli, pre-emergence, 240 h, 0 to 100 scale where 0 is no effect and 100 is complete control, read-out: Barnyardgrass plant response rating
How it was run: as §1

[6] = system: ragweed (common ragweed, Ambrosia elatior); assay: Test A preemergence; conditions: Ambrosia artemisiifolia, pre-emergence, 240 h, 0 to 100 scale where 0 is no effect and 100 is complete control, read-out: Ragweed plant response rating
How it was run: as §1

[7] = system: sedge, umbrella (small-flower umbrella sedge, Cyperus difformis); assay: Test B flooded paddy test; conditions: Cyperus difformis, 250 g ai/ha, Flood; 0 to 100 scale where 0 is no effect and 100 is complete control; read-out: Sedge, Umbrella plant response rating
How it was run: (§2)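 Rating scale 0–100 (visual, vs untreated controls) after a 13–15 d greenhouse period; application to the flood layer, 3 cm above soil and maintained; plants at 2-leaf stage when treated.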

[8] = system: ducksalad (Heteranthera limosa); assay: Test B flooded paddy test; conditions: Heteranthera limosa, 250 g ai/ha, Flood; 0 to 100 scale where 0 is no effect and 100 is complete control; read-out: Ducksalad plant response rating
How it was run: as §2

[9] = system: barnyardgrass (Echinochloa crus-galli); assay: Test B flooded paddy test; conditions: Echinochloa crus-galli, 250 g ai/ha, Flood; 0 to 100 scale where 0 is no effect and 100 is complete control; read-out: Barnyardgrass plant response rating
How it was run: as §2

rice (Oryra sativa) = assay: Test B flooded paddy test; conditions: Oryza sativa, 250 g ai/ha, Flood; 0 to 100 scale where 0 is no effect and 100 is complete control; read-out: Rice plant response rating
How it was run: as §2

[10] = system: ryegrass, Italian (Italian ryegrass, Lolium multiflorum); assay: Test A postemergence; conditions: Lolium multiflorum, post-emergence, 240 h
How it was run: as §1

[11] = system: wheat (Triticum aestivum); assay: Test A postemergence; conditions: Triticum aestivum, post-emergence, 240 h
How it was run: as §1

corn (Zea mays) = assay: Test A postemergence; conditions: Zea mays, post-emergence, 240 h
How it was run: as §1

[12] = system: blackgrass (Alopecurus myosuroides); assay: Test A postemergence; conditions: Alopecurus myosuroides, post-emergence, 240 h
How it was run: as §1

Kochia (Kochia scoparia) [13] = assay: Test A postemergence; conditions: Bassia scoparia, post-emergence, 240 h
How it was run: as §1

[14] = system: pigweed (Amaranthus retroflexus); assay: Test A postemergence; conditions: Amaranthus retroflexus, post-emergence, 240 h
How it was run: as §1

[15] = system: giant foxtail (Setaria faberii); assay: Test A postemergence; conditions: Setaria faberi, post-emergence, 240 h
How it was run: as §1

[16] = system: barnyardgrass (Echinochloa crus-galli); assay: Test A postemergence; conditions: Echinochloa crus-galli, post-emergence, 240 h
How it was run: as §1

[17] = system: Galium (catchweed bedstraw, Galium aparine); assay: Test A postemergence; conditions: Galium, post-emergence, 240 h
How it was run: as §1

[18] = system: ragweed (common ragweed, Ambrosia elatior); assay: Test A postemergence; conditions: Ambrosia artemisiifolia, post-emergence, 240 h
How it was run: as §1

[19] = 125 g ai/ha, preemergence, approx. 10 d

CN1C[C@H](c2csc3c2CCC3)[C@@H](C(=O)Nc2ccccc2S(C)(=O)=O)C1=O [Compound 1082]
pest or weed control at 31 g/ha ([1]; 31 g ai/ha, Preemergence): 0% | pest or weed control at 125 g/ha [1, 19]: 0% | pest or weed control at 31 g/ha (Kochia (Kochia scoparia) [2]; 31 g ai/ha, Preemergence): 0% | pest or weed control at 125 g/ha (Kochia (Kochia scoparia) [2]; [19]): 0% | pest or weed control at 31 g/ha ([3]; 31 g ai/ha, Preemergence): 0% | pest or weed control at 125 g/ha [3, 19]: 0% | pest or weed control at 31 g/ha ([4]; 31 g ai/ha, Preemergence): 0% | pest or weed control at 125 g/ha [4, 19]: 0% | pest or weed control at 31 g/ha ([5]; 31 g ai/ha, Preemergence): 0% | pest or weed control at 125 g/ha [5, 19]: 0% | pest or weed control at 31 g/ha ([6]; 31 g ai/ha, Preemergence): 0% | pest or weed control at 125 g/ha [6, 19]: 0% | pest or weed control at 250 g/ha [7]: 0% | pest or weed control at 250 g/ha [8]: 70% | pest or weed control at 250 g/ha [9]: 0% | pest or weed control at 250 g/ha (rice (Oryra sativa)): 35% | pest or weed control at 125 g/ha ([10]; 125 g ai/ha, postemergence, visual injury on 0 to 100 scale (0 no effect, 100 complete control), approx. 10 d, read-out: Ryegrass, Italian plant response rating): 0% | pest or weed control at 31 g/ha ([10]; Postemergence, 31 g ai/ha, visual injury after approx. 10 d, 0 to 100 scale, 0 no effect, 100 complete control, read-out: Plant response rating, Ryegrass, Italian): 0% | plant injury at 125 g/ha ([11]; 125 g ai/ha, postemergence, visual injury on 0 to 100 scale (0 no effect, 100 complete control), approx. 10 d, read-out: Wheat plant response rating): 0% | plant injury at 31 g/ha ([11]; Postemergence, 31 g ai/ha, visual injury after approx. 10 d, 0 to 100 scale, 0 no effect, 100 complete control, read-out: Plant response rating, Wheat): 0% | plant injury at 125 g/ha (corn (Zea mays); 125 g ai/ha, postemergence, visual injury on 0 to 100 scale (0 no effect, 100 complete control), approx. 10 d, read-out: Corn plant response rating): 30% | Corn plant response rating (crop injury, 0 = no effect, 100 = complete kill) at 31 g/ha (corn (Zea mays); Postemergence, 31 g ai/ha, visual injury after approx. 10 d, 0 to 100 scale, 0 no effect, 100 complete control): 0% | pest or weed control at 125 g/ha ([12]; 125 g ai/ha, postemergence, visual injury on 0 to 100 scale (0 no effect, 100 complete control), approx. 10 d, read-out: Blackgrass plant response rating): 0% | pest or weed control at 31 g/ha ([12]; Postemergence, 31 g ai/ha, visual injury after approx. 10 d, 0 to 100 scale, 0 no effect, 100 complete control, read-out: Plant response rating, Blackgrass): 0% | pest or weed control at 125 g/ha (Kochia (Kochia scoparia) [13]; 125 g ai/ha, postemergence, visual injury on 0 to 100 scale (0 no effect, 100 complete control), approx. 10 d, read-out: Kochia plant response rating): 0% | pest or weed control at 31 g/ha (Kochia (Kochia scoparia) [13]; Postemergence, 31 g ai/ha, visual injury after approx. 10 d, 0 to 100 scale, 0 no effect, 100 complete control, read-out: Plant response rating, Kochia): 0% | pest or weed control at 125 g/ha ([14]; 125 g ai/ha, postemergence, visual injury on 0 to 100 scale (0 no effect, 100 complete control), approx. 10 d, read-out: Pigweed plant response rating): 0% | pest or weed control at 31 g/ha ([14]; Postemergence, 31 g ai/ha, visual injury after approx. 10 d, 0 to 100 scale, 0 no effect, 100 complete control, read-out: Plant response rating, Pigweed): 0% | pest or weed control at 125 g/ha ([15]; 125 g ai/ha, postemergence, visual injury on 0 to 100 scale (0 no effect, 100 complete control), approx. 10 d, read-out: Foxtail, Giant plant response rating): 0% | pest or weed control at 31 g/ha ([15]; Postemergence, 31 g ai/ha, visual injury after approx. 10 d, 0 to 100 scale, 0 no effect, 100 complete control, read-out: Plant response rating, Foxtail, Giant): 0% | pest or weed control at 125 g/ha ([16]; 125 g ai/ha, postemergence, visual injury on 0 to 100 scale (0 no effect, 100 complete control), approx. 10 d, read-out: Barnyardgrass plant response rating): 30% | pest or weed control at 31 g/ha ([16]; Postemergence, 31 g ai/ha, visual injury after approx. 10 d, 0 to 100 scale, 0 no effect, 100 complete control, read-out: Plant response rating, Barnyardgrass): 0% | pest or weed control at 125 g/ha ([17]; 125 g ai/ha, postemergence, visual injury on 0 to 100 scale (0 no effect, 100 complete control), approx. 10 d, read-out: Galium plant response rating): 0% | pest or weed control at 31 g/ha ([17]; Postemergence, 31 g ai/ha, visual injury after approx. 10 d, 0 to 100 scale, 0 no effect, 100 complete control, read-out: Plant response rating, Galium): 0% | pest or weed control at 125 g/ha ([18]; 125 g ai/ha, postemergence, visual injury on 0 to 100 scale (0 no effect, 100 complete control), approx. 10 d, read-out: Ragweed plant response rating): 0% | pest or weed control at 31 g/ha ([18]; Postemergence, 31 g ai/ha, visual injury after approx. 10 d, 0 to 100 scale, 0 no effect, 100 complete control, read-out: Plant response rating, Ragweed): 0%
